For data set [1] the following is noted: cohorts 1-4.
From the text: (§1) Healthy subjects receive a single dose of drug at the highest dose studied in the liver-impaired subjects in order to make relative comparison to the PK aspects of Nalbuphine extended release (ER).
(§2) Cohort 1 consists of subjects with impaired hepatic function divided into three groups with some subjects in each of the mild Child-Pugh A category (Group 1), the moderate Child-Pugh B category (Group 2), and the severe Child-Pugh category C (Group 3). Cohort 2-4 consists of subjects with impaired hepatic function divided into two groups with some subjects in each of the mild Child-Pugh A category (Group 1), and the moderate Child-Pugh B category (Group 2).
(§3) Dosing: Subjects receive a single ascending dose, under fasting condition, at the following dose levels:
(§4) Each of the cohorts is dosed sequentially starting with the lowest dose. Subjects with mild or moderate hepatic impairment enrolled in Cohort 1 are optionally enrolled in Cohorts 2, 3, and 4. For each dose cohort, enrollment of subjects with mild or moderate hepatic impairment is done in parallel. An evaluation of safety and tolerability of the combined mild and moderate hepatic impairment subject data is done at each dose level before proceeding to the next dose level.
(§5) Blood: Blood from the patients of each cohort is collected in K2EDTA tubes. The plasma fractions are separated by centrifugation and stored frozen until analysis. Blood samples are collected at the following time points: 0 h (prior to the dose), 1.5, 3, 5, 7, 9, 12, 24, 36, 48, and 72 h after the dose.
The nature of a further data set: clinical. Particulars: human, plasma, oral.

From the text for clinical: as §1, §2, §3, §4, §5

One may read the AUC(0-t) as the area under the concentration-time curve up to a stated or last time point. Higher therefore signals high exposure. Broadly, the Cmax is the peak of the concentration-time curve. For the compound `Cl.Oc1ccc2c3c1OC1[C@@H](O)CC[C@@]4(O)[C@@H](C2)N(CC2CCC2)CC[C@]314` (stereo partly drawn) [nalbuphine, 17-(cyclobutylmethyl)-4,5α-epoxymorphinian-3, 6α, 14-triol, hydrochloride], the Half-life across cohorts entry in data set [1] is listed as “similar”. The area under the curve AUC(0-t) in “clinical” (27 mg, AUC0-t Mean, 27 mg single dose, Cohort 1, mild hepatic impairment (Child Pugh A)) amounted to 48.9 ng·h/mL; in the data set “clinical” (27 mg, AUC0-t Mean, 27 mg single dose, Cohort 1, moderate hepatic impairment (Child Pugh B)) it was 244 ng·h/mL; in the data set “clinical” (27 mg, AUC0-t Mean, 27 mg single dose, Cohort 1, severe hepatic impairment (Child Pugh C)), 489 ng·h/mL; in “clinical” (162 mg, mean AUC0-t, 162 mg single dose, Cohort 4, mild hepatic impairment (Child Pugh A)), 375 ng·h/mL; in “clinical” (162 mg, mean AUC0-t, 162 mg single dose, Cohort 4, moderate hepatic impairment (Child Pugh B)), 1230 ng·h/mL. The highest concentration (Cmax) in the data set “clinical” (27 mg, Cmax Mean, 27 mg single dose, Cohort 1, mild hepatic impairment (Child Pugh A)) amounted to 3.56 ng/mL; in “clinical” (27 mg, Cmax Mean, 27 mg single dose, Cohort 1, moderate hepatic impairment (Child Pugh B)), 14.6 ng/mL; in “clinical” (27 mg, Cmax Mean, 27 mg single dose, Cohort 1, severe hepatic impairment (Child Pugh C)), 28.3 ng/mL; in the data set “clinical” (162 mg, mean Cmax, 162 mg single dose, Cohort 4, mild hepatic impairment (Child Pugh A)), 19.9 ng/mL; in “clinical” (162 mg, mean Cmax, 162 mg single dose, Cohort 4, moderate hepatic impairment (Child Pugh B)), 65.4 ng/mL.

Values taken from US12274696B2, “Methods of administering nalbuphine” (Trevi Therapeutics, Inc., priority 2020, dated 2025).
